ChEMBL document CHEMBL1201862, “PubChem BioAssay data set” (2004)
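Compound exposure: 48 hours, 5 concentrations, 96-well plates. Here, GI50 denotes the concentration required for 50% inhibition of growth.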 Calls of active or inactive are those of the source. Cut-off read from the data, not from the text of the source: active = GI50 up to about 1.1 µM and inactive = higher.

How the values were obtained:
Assay in all cases: NCI-60 cell line screen, 48 h
U-251 = test system: U-251
SK-MEL-28 = test system: SK-MEL-28
KM12 = test system: KM12
MDA-MB-231 = test system: MDA-MB-231
HCC 2998 = test system: HCC 2998
SN12C = test system: SN12C
UACC-62 = test system: UACC-62
SNB-19 = test system: SNB-19
NCI-H522 = test system: NCI-H522
PC-3 = test system: PC-3
SF-295 = test system: SF-295
OVCAR-4 = test system: OVCAR-4
HOP-92 = test system: HOP-92
EKVX = test system: EKVX
MCF7 = test system: MCF7
HCT-116 = test system: HCT-116
UACC-257 = test system: UACC-257
DU-145 = test system: DU-145
786-0 = test system: 786-0
OVCAR-3 = test system: OVCAR-3

Measured: GI50

CCN(CC)CCn1nc(N)c2nc3cc(Cl)ccc3nc21
inactive: U-251 > 100 µM | SK-MEL-28 76.2 µM | KM12 94.8 µM | MDA-MB-231 > 100 µM | HCC 2998 > 100 µM | SN12C 45.1 µM | UACC-62 45.9 µM | SNB-19 53.5 µM | NCI-H522 31.8 µM | PC-3 58.1 µM | SF-295 54.2 µM | OVCAR-4 > 100 µM | HOP-92 > 100 µM | EKVX 80 µM | MCF7 36.1 µM | HCT-116 48.4 µM | UACC-257 37.5 µM | DU-145 > 100 µM | 786-0 62.8 µM

CS(=O)(=O)OC1CN2CCC1CC2 (stereo not given)
inactive: U-251 > 100 µM | SK-MEL-28 > 100 µM | KM12 > 100 µM | MDA-MB-231 > 100 µM | SN12C > 100 µM | UACC-62 > 100 µM | SNB-19 > 100 µM | NCI-H522 > 100 µM | PC-3 > 100 µM | SF-295 > 100 µM | OVCAR-4 > 100 µM | HOP-92 > 100 µM | EKVX > 100 µM | MCF7 > 100 µM | HCT-116 > 100 µM | UACC-257 > 100 µM | DU-145 > 100 µM | 786-0 > 100 µM | OVCAR-3 > 100 µM

NCCCc1ccc2oc3ccccc3c2c1
inactive: U-251 18.7 µM | SK-MEL-28 17.8 µM | MDA-MB-231 17.7 µM | HCC 2998 10.6 µM | SN12C 17 µM | UACC-62 17.7 µM | SNB-19 16 µM | NCI-H522 17.1 µM | PC-3 18.7 µM | SF-295 18.5 µM | OVCAR-4 19.9 µM | HOP-92 20.4 µM | MCF7 18.7 µM | HCT-116 15.3 µM | UACC-257 17.9 µM | DU-145 16.9 µM | 786-0 13.7 µM | OVCAR-3 17.2 µM

COC(=O)C1CCC(=O)N1C(c1cc(OC)c(OC)c(OC)c1)c1cc(OC)c(OC)c(OC)c1 (stereo not given)
inactive: U-251 > 100 µM | SK-MEL-28 > 100 µM | KM12 > 100 µM | MDA-MB-231 > 100 µM | SN12C > 100 µM | UACC-62 > 100 µM | SNB-19 > 100 µM | NCI-H522 > 100 µM | PC-3 > 100 µM | SF-295 > 100 µM | HOP-92 > 100 µM | EKVX > 100 µM | MCF7 > 100 µM | HCT-116 > 100 µM | UACC-257 > 100 µM | DU-145 > 100 µM | 786-0 > 100 µM | OVCAR-3 > 100 µM

C1=C[C@]2(CCC13OCCO3)COc1ccccc12
inactive: U-251 48.8 µM | SK-MEL-28 49.3 µM | KM12 26.3 µM | MDA-MB-231 75.9 µM | HCC 2998 43.6 µM | SN12C 74.8 µM | UACC-62 23.9 µM | SNB-19 38 µM | PC-3 35.8 µM | SF-295 43.1 µM | OVCAR-4 47 µM | HOP-92 46.7 µM | EKVX 66.1 µM | MCF7 33.3 µM | HCT-116 37.1 µM | UACC-257 43.1 µM | DU-145 32.3 µM | 786-0 54.3 µM | OVCAR-3 36.1 µM

CN(C)c1ccc(/C=N/c2ccc(-c3nc4ccccc4[nH]3)cc2)cc1
inactive: U-251 39.2 µM | SK-MEL-28 > 100 µM | KM12 32.5 µM | MDA-MB-231 32.8 µM | SN12C 40.6 µM | SNB-19 40 µM | NCI-H522 56 µM | PC-3 53.6 µM | SF-295 46.6 µM | OVCAR-4 35.9 µM | HOP-92 > 100 µM | EKVX > 100 µM | MCF7 46.9 µM | HCT-116 43.6 µM | UACC-257 > 100 µM | DU-145 65.8 µM | 786-0 74.8 µM | OVCAR-3 71.1 µM

O=C1CSC(=S)N1c1ccco1
inactive: U-251 > 100 µM | SK-MEL-28 > 100 µM | KM12 21.9 µM | MDA-MB-231 31.8 µM | SN12C 57.1 µM | SNB-19 > 100 µM | NCI-H522 23.4 µM | PC-3 71.3 µM | SF-295 > 100 µM | OVCAR-4 > 100 µM | HOP-92 > 100 µM | EKVX > 100 µM | MCF7 39.2 µM | HCT-116 60.4 µM | UACC-257 > 100 µM | DU-145 > 100 µM | 786-0 25.4 µM | OVCAR-3 77.8 µM

N=C(N)SCCON1C(=O)c2ccccc2C1=O
inactive: U-251 > 100 µM | SK-MEL-28 > 100 µM | KM12 > 100 µM | MDA-MB-231 > 100 µM | SN12C > 100 µM | UACC-62 > 100 µM | SNB-19 > 100 µM | NCI-H522 > 100 µM | PC-3 > 100 µM | SF-295 > 100 µM | OVCAR-4 > 100 µM | HOP-92 > 100 µM | EKVX > 100 µM | MCF7 > 100 µM | HCT-116 > 100 µM | UACC-257 > 100 µM | DU-145 > 100 µM | 786-0 > 100 µM | OVCAR-3 > 100 µM

CC1=NN=C(N)N/C1=C\C(Sc1ccc(Cl)cc1)c1ccc(Cl)cc1Cl (stereo not given)
inactive: U-251 14.2 µM | SK-MEL-28 21.8 µM | KM12 6.41 µM | MDA-MB-231 21.1 µM | HCC 2998 4.67 µM | SN12C 24.8 µM | UACC-62 14.7 µM | SNB-19 12.4 µM | NCI-H522 3.79 µM | PC-3 11.6 µM | SF-295 16.9 µM | OVCAR-4 17.1 µM | HOP-92 9.71 µM | EKVX 13.2 µM | MCF7 3.78 µM | HCT-116 8.02 µM | UACC-257 16.8 µM | DU-145 19.3 µM | 786-0 18.5 µM

Cc1ccc(C)c(N2C(=O)C(=O)c3c(C)ccc(C)c32)c1
inactive: U-251 17.2 µM | SK-MEL-28 33.5 µM | KM12 24.5 µM | MDA-MB-231 16.9 µM | SN12C 26.8 µM | UACC-62 16.3 µM | SNB-19 40.6 µM | NCI-H522 15.5 µM | PC-3 23 µM | SF-295 22.9 µM | OVCAR-4 18.8 µM | HOP-92 23.6 µM | EKVX 60.7 µM | MCF7 23.4 µM | HCT-116 16.3 µM | UACC-257 24 µM | DU-145 27.7 µM | 786-0 29.3 µM | OVCAR-3 16.3 µM

CC(NC(=O)OCc1ccccc1)NC(=O)C(CC(=O)OC(C)(C)C)NC(=O)OC(C)(C)C (stereo not given)
inactive: U-251 > 100 µM | SK-MEL-28 > 100 µM | KM12 > 100 µM | MDA-MB-231 > 100 µM | SN12C > 100 µM | UACC-62 > 100 µM | SNB-19 > 100 µM | NCI-H522 > 100 µM | PC-3 > 100 µM | SF-295 > 100 µM | OVCAR-4 > 100 µM | HOP-92 > 100 µM | EKVX > 100 µM | MCF7 > 100 µM | HCT-116 > 100 µM | UACC-257 > 100 µM | DU-145 > 100 µM | 786-0 > 100 µM | OVCAR-3 > 100 µM
